Measured values published in the CheMixHub ionic liquid set.

Assay: xn = mol fraction of the nth substance listed

CCCC[n+]1ccn(C)c1.O=S(=O)([O-])C(F)(F)F + NCCO + O
viscosity [mPa·s], 101 kPa
Conditions	293.15 K	298.15 K	303.15 K	308.15 K	313.15 K	318.15 K	323.15 K	328.15 K	333.15 K
x2 = 0.1349, x3 = 0.8555	4.3	3.656	3.152	2.758	2.447	2.198	2.004	1.847	1.718
x2 = 0.1564, x3 = 0.8171	–	5.025	4.267	3.67	3.186	2.805	2.511	2.269	2.073
x2 = 0.2358, x3 = 0.6935	11.54	9.48	7.87	6.611	5.618	4.823	4.182	3.665	3.242

CCCC[n+]1ccn(C)c1.O=S(=O)([O-])C(F)(F)F + Nc1ccccc1
100 kPa
Conditions	viscosity [mPa·s]
288.15 K, x2 = 0	132.7
293.15 K, x2 = 0.3002	57.6
298.15 K, x2 = 0.1995	56.1
303.15 K, x2 = 0.3002	37.3
318.15 K, x2 = 0.3996	17.67
323.15 K, x2 = 0.3002	18.28
323.15 K, x2 = 0.8999	3.12
328.15 K, x2 = 0.8999	2.76
333.15 K, x2 = 0.1995	16.23

CCCC[n+]1ccn(C)c1.[Cl-] + O
Conditions	electrical conductivity [S/m]	viscosity [mPa·s]
278.15 K, 100 kPa, x1 = 9.568e-05	–	1.532
278.15 K, 100 kPa, x1 = 0.000202	–	1.539
278.15 K, 100 kPa, x1 = 0.0003808	–	1.545
278.15 K, 100 kPa, x1 = 0.0005628	–	1.555
278.15 K, 100 kPa, x1 = 0.0007322	–	1.561
278.15 K, 100 kPa, x1 = 0.0009239	–	1.57
278.15 K, 100 kPa, x1 = 0.001099	–	1.576
278.15 K, 100 kPa, x1 = 0.001363	–	1.587
278.15 K, 100 kPa, x1 = 0.001909	–	1.608
283.15 K, 100 kPa, x1 = 9.568e-05	–	1.314
283.15 K, 100 kPa, x1 = 0.000202	–	1.318
283.15 K, 100 kPa, x1 = 0.0003808	–	1.325
283.15 K, 100 kPa, x1 = 0.0005628	–	1.332
283.15 K, 100 kPa, x1 = 0.0007322	–	1.339
283.15 K, 100 kPa, x1 = 0.0009239	–	1.348
283.15 K, 100 kPa, x1 = 0.001099	–	1.355
283.15 K, 100 kPa, x1 = 0.001363	–	1.365
283.15 K, 100 kPa, x1 = 0.001909	–	1.377
288.15 K, 100 kPa, x1 = 9.568e-05	–	1.146
288.15 K, 100 kPa, x1 = 0.000202	–	1.149
288.15 K, 100 kPa, x1 = 0.0003808	–	1.155
288.15 K, 100 kPa, x1 = 0.0005628	–	1.161
288.15 K, 100 kPa, x1 = 0.0007322	–	1.168
288.15 K, 100 kPa, x1 = 0.0009239	–	1.178
288.15 K, 100 kPa, x1 = 0.001099	–	1.18
288.15 K, 100 kPa, x1 = 0.001363	–	1.189
288.15 K, 100 kPa, x1 = 0.001909	–	1.198
293.15 K, 100 kPa, x1 = 0.0003808	–	1.017
293.15 K, 100 kPa, x1 = 0.0005628	–	1.021
293.15 K, 100 kPa, x1 = 0.0007322	–	1.027
293.15 K, 100 kPa, x1 = 0.0009239	–	1.033
293.15 K, 100 kPa, x1 = 0.001099	–	1.036
293.15 K, 100 kPa, x1 = 0.001363	–	1.044
293.15 K, 100 kPa, x1 = 0.001909	–	1.053
293.15 K, 101 kPa, x2 = 0.4982	–	240
293.15 K, 101 kPa, x2 = 0.9502	–	2.57
298.15 K, 100 kPa, x1 = 0.000202	–	0.9
298.15 K, 100 kPa, x1 = 0.0003808	–	0.904
298.15 K, 100 kPa, x1 = 0.0005628	–	0.908
298.15 K, 100 kPa, x1 = 0.0007322	–	0.913
298.15 K, 100 kPa, x1 = 0.0009239	–	0.918
298.15 K, 100 kPa, x1 = 0.001099	–	0.922
298.15 K, 100 kPa, x1 = 0.001363	–	0.928
298.15 K, 100 kPa, x1 = 0.001909	–	0.936
298.15 K, 101 kPa, x1 = 0.009814	3.03	–
298.15 K, 101 kPa, x2 = 0.8034	3.08	12.6
298.15 K, 101 kPa, x2 = 0.9259	6.29	–
298.15 K, 101 kPa, x2 = 0.9476	6.24	–
298.15 K, 101 kPa, x2 = 0.9647	5.76	–
298.15 K, 101 kPa, x2 = 0.9787	4.73	–
298.15 K, 101.3 kPa, x1 = 8.71e-06	0.00583	–
298.15 K, 101.3 kPa, x1 = 1.208e-05	0.00794	–
298.15 K, 101.3 kPa, x1 = 1.485e-05	0.00965	–
298.15 K, 101.3 kPa, x1 = 1.707e-05	0.01101	–
298.15 K, 101.3 kPa, x1 = 1.937e-05	0.01241	–
298.15 K, 101.3 kPa, x1 = 2.164e-05	0.0138	–
298.15 K, 101.3 kPa, x1 = 2.397e-05	0.0152	–
298.15 K, 101.3 kPa, x1 = 2.6e-05	0.0164	–
298.15 K, 101.3 kPa, x1 = 2.824e-05	0.0177	–
298.15 K, 101.3 kPa, x1 = 3.029e-05	0.019	–
298.15 K, 101.3 kPa, x1 = 0.0009038	–	0.911
298.15 K, 101.3 kPa, x1 = 0.000929	–	0.908
298.15 K, 101.3 kPa, x1 = 0.001008	–	0.919
298.15 K, 101.3 kPa, x1 = 0.001815	–	0.928
298.15 K, 101.3 kPa, x1 = 0.00182	–	0.935
298.15 K, 101.3 kPa, x1 = 0.001824	–	0.928
298.15 K, 101.3 kPa, x1 = 0.003602	–	0.971
303.15 K, 100 kPa, x1 = 9.568e-05	–	0.803
303.15 K, 100 kPa, x1 = 0.000202	–	0.806
303.15 K, 100 kPa, x1 = 0.0003808	–	0.81
303.15 K, 100 kPa, x1 = 0.0005628	–	0.813
303.15 K, 100 kPa, x1 = 0.0007322	–	0.817
303.15 K, 100 kPa, x1 = 0.0009239	–	0.82
303.15 K, 100 kPa, x1 = 0.001099	–	0.823
303.15 K, 100 kPa, x1 = 0.001363	–	0.828
303.15 K, 100 kPa, x1 = 0.001909	–	0.837
303.15 K, 101 kPa, x2 = 0.8999	–	3.82
308.15 K, 100 kPa, x1 = 9.568e-05	–	0.725
308.15 K, 100 kPa, x1 = 0.000202	–	0.727
308.15 K, 100 kPa, x1 = 0.0003808	–	0.73
308.15 K, 100 kPa, x1 = 0.0005628	–	0.733
308.15 K, 100 kPa, x1 = 0.0007322	–	0.737
308.15 K, 100 kPa, x1 = 0.0009239	–	0.74
308.15 K, 100 kPa, x1 = 0.001099	–	0.742
308.15 K, 100 kPa, x1 = 0.001363	–	0.746
308.15 K, 100 kPa, x1 = 0.001909	–	0.754
308.15 K, 101 kPa, x2 = 0.4982	–	92
308.15 K, 101.3 kPa, x1 = 0.0009038	–	0.737
308.15 K, 101.3 kPa, x1 = 0.00092	–	0.733
308.15 K, 101.3 kPa, x1 = 0.000929	–	0.733
308.15 K, 101.3 kPa, x1 = 0.001008	–	0.74
308.15 K, 101.3 kPa, x1 = 0.001815	–	0.748
308.15 K, 101.3 kPa, x1 = 0.00182	–	0.754
308.15 K, 101.3 kPa, x1 = 0.001822	–	0.751
308.15 K, 101.3 kPa, x1 = 0.001824	–	0.747
310.15 K, 101.3 kPa, x1 = 0.0009038	–	0.71
310.15 K, 101.3 kPa, x1 = 0.00092	–	0.705
310.15 K, 101.3 kPa, x1 = 0.000929	–	0.704
310.15 K, 101.3 kPa, x1 = 0.001008	–	0.712
310.15 K, 101.3 kPa, x1 = 0.001815	–	0.722
310.15 K, 101.3 kPa, x1 = 0.00182	–	0.728
310.15 K, 101.3 kPa, x1 = 0.001822	–	0.722
310.15 K, 101.3 kPa, x1 = 0.001824	–	0.717
313.15 K, 100 kPa, x1 = 9.568e-05	–	0.658
313.15 K, 100 kPa, x1 = 0.000202	–	0.66
313.15 K, 100 kPa, x1 = 0.0003808	–	0.663
313.15 K, 100 kPa, x1 = 0.0005628	–	0.665
313.15 K, 100 kPa, x1 = 0.0007322	–	0.668
313.15 K, 100 kPa, x1 = 0.0009239	–	0.671
313.15 K, 100 kPa, x1 = 0.001099	–	0.673
313.15 K, 100 kPa, x1 = 0.001363	–	0.677
313.15 K, 100 kPa, x1 = 0.001909	–	0.686
318.15 K, 101.3 kPa, x1 = 0.0009038	–	0.613
318.15 K, 101.3 kPa, x1 = 0.00092	–	0.608
318.15 K, 101.3 kPa, x1 = 0.000929	–	0.607
318.15 K, 101.3 kPa, x1 = 0.001008	–	0.615
318.15 K, 101.3 kPa, x1 = 0.001815	–	0.624
318.15 K, 101.3 kPa, x1 = 0.00182	–	0.625
318.15 K, 101.3 kPa, x1 = 0.001822	–	0.623
318.15 K, 101.3 kPa, x1 = 0.001824	–	0.618

COC[n+]1ccn(C)c1.O=S(=O)([N-]S(=O)(=O)C(F)(F)F)C(F)(F)F + O
Conditions	viscosity [mPa·s]
283 K, 101 kPa, x1 = 0.8283	80.4
